Results published in patent publication US12091426B2, “Bifunctional degraders of hematopoietic progenitor kinase and therapeutic uses thereof” (Nurix Therapeutics, Inc., priority 2021, dated 2024).

Target: T1, HPK1 (Homo sapiens, UniProt Q92918)
T1 construct: A HiBiT tag was introduced by CRISPR on the N terminus of HPK1 in Jurkat cells; host or cells: Jurkat cells (ATCC TIB-152), monoclonal line with CRISPR knock-in of HiBiT at the endogenous HPK1 locus
Test: HPK1 Cellular HiBit Degradation Assay
Assay type: cell-based
Conditions: HiBiT HPK1 Jurkat cells, 24 hrs; for DC50: concentration at which 50% of HPK1 was remaining, read-out: DC50 Category; for Dmax: Jurkat, maximum degradation vs DMSO vehicle control, read-out: Dmax Category
Method in brief: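 Jurkat cells with CRISPR N-terminal HiBiT-tagged endogenous HPK1 treated 24 h at 37 °C with 11-point, 3.16-fold dilutions (10 uM to 0.1 nM final). HiBiT lytic luminescence gives % HPK1 remaining versus DMSO, with parental cells as background. Four-parameter fit yields DC50; Dmax = 100 minus lowest % remaining.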

T1 sequence (Q92918 whole entry): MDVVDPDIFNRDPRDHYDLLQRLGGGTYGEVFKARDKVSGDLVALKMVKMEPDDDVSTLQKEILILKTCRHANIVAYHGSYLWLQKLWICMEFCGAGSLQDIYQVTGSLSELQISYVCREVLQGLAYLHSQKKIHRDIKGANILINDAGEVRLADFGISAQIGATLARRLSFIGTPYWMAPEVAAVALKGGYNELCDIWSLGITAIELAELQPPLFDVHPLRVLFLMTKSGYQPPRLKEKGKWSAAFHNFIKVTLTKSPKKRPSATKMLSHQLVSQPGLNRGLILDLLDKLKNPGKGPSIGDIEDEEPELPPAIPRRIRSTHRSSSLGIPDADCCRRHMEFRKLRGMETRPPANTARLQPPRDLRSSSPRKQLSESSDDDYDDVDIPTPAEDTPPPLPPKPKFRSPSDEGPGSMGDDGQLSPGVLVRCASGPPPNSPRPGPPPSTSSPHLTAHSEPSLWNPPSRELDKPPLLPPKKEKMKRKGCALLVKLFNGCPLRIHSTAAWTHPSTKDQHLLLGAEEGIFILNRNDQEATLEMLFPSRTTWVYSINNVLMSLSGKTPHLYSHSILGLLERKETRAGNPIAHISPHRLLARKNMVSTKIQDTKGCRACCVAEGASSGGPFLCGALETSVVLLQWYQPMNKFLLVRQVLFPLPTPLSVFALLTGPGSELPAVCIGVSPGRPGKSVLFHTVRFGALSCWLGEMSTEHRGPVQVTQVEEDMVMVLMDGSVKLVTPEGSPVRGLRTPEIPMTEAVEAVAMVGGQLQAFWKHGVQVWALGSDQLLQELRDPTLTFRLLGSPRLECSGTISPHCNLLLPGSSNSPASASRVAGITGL

Row | DC50 [nM] | Dmax [%] | SMILES
1 | < 100 | 70 to 85 | CC(C)n1cnc2cc(-c3ccc4c(c3)N([C@H]3C[C@@H](N5CCCCC5)C3)C(=O)C43CCN(C(=O)[C@@H]4CCCN(C(=O)CC5CCN(c6ccc(C7CCC(=O)NC7=O)cn6)CC5)C4)CC3)nc(NC3CC3)c21 (mixture of isomers) [Example 235, (3RS)-3-[6-(4-{2-[(3R)-3-({6-[4-(cyclopropylamino)-3-(propan-2-yl)-3H-imidazo[4,5-c]pyridin-6-yl]-2-oxo-1-[(1S,3S)-3-(piperidin-1-yl)cyclobutyl]-1,2-dihydrospiro[indole-3,4′-piperidin]-1′-yl}carbonyl)piperidin-1-yl]-2-oxoethyl}piperidin-1-yl)pyridin-3-yl]piperidine-2,6-dione]
2 | 100 to 500 | 70 to 85 | CC(C)n1cnc2cc(-c3ccc4c(c3)N([C@H]3C[C@@H](N5CCCCC5)C3)C(=O)C43CCN(C(=O)C4CCN(C(=O)C5CCN(c6ccc7c(c6)C(=O)N(C6CCC(=O)NC6=O)C7=O)CC5)CC4)CC3)nc(NC3CC3)c21 (mixture of isomers) [Example 86, 5-{4-[4-({6-[4-(cyclopropylamino)-3-(propan-2-yl)-3H-imidazo[4,5-c]pyridin-6-yl]-2-oxo-1-[(1S,3S)-3-(piperidin-1-yl)cyclobutyl]-1,2-dihydrospiro[indole-3,4′-piperidin]-1′-yl}carbonyl)piperidine-1-carbonyl]piperidin-1-yl}-2-[(3RS)-2,6-dioxopiperidin-3-yl]-2,3-dihydro-1H-isoindole-1,3-dione]
3 | < 100 | 50 to 70 | CC(C)n1cnc2cc(-c3ccc4c(c3)N([C@H]3C[C@@H](N5CCCCC5)C3)C(=O)C43CCN(C(=O)[C@]45C[C@H]4CN(C(=O)C4CCN(c6ccc(C7CCC(=O)NC7=O)cc6)CC4)C5)CC3)nc(NC3CC3)c21 (mixture of isomers) [Example 263, (3RS)-3-(4-{4-[(1R,5R)-1-({6-[4-(cyclopropylamino)-3-(propan-2-yl)-3H-imidazo[4,5-c]pyridin-6-yl]-2-oxo-1-[(1S,3S)-3-(piperidin-1-yl)cyclobutyl]-1,2-dihydrospiro[indole-3,4′-piperidin]-1′-yl}carbonyl)-3-azabicyclo[3.1.0]hexane-3-carbonyl]piperidin-1-yl}phenyl)piperidine-2,6-dione]
